Experimental data published in patent US20090081170A1, “Cardiac progenitor cells” (priority 2007, published 2009).
Where a SMILES comes first, the peptide text is derived from it.

Key:
[1] = system: adult heart explants (adult EPDCs); experiment: Adult epicardial explant culture: EPDC outgrowth and differentiation; assay type: cell-based, mouse
Method: A simple protocol for the outgrowth and differentiation of vasculogenic precursor cells (endothelial and vascular smooth muscle cells) from adult heart using Thymosin β4 to stimulate epicardial cell migration is described below.
• 1. Coat 6-well plates with gelatin: pipette 2 ml 0.1% gelatin solution, allow to stand for 15 minutes and aspirate. Optionally, place coverslips into wells, prior to gelatin coating. • 2. Cull adult mouse by cervical dislocation. • 3. Using sterile forceps and scissors make a lateral incision in the centre of the abdomen and tear back the fur to expose the rib cage. • 4. Carefully cut upwards through the sternum and along the diaphragm, taking care not to cut into the heart. Pull back the ribs to reveal the heart. • 5. Remove the heart using forceps and dissect away the atria and major vessels, to leave right and left ventricles. • 6. Place tissue in a 60 mm tissue culture dish (non gelatin coated) containing 2 ml DPBS. Cut into quarters and allow blood to rinse from the tissue. Carefully aspirate away DPBS. Using a sterile scalpel, cut the heart into pieces of approximately 1 mm^3. Reproducible EPDC outgrowth strongly depends upon the size of the heart pieces (optimally 1 mm^3). Larger pieces will not adhere to permit sufficient migration while smaller pieces tend to dissociate completely and cardiomyocyte death precedes adherence and EPDC outgrowth. • 7. Divide heart pieces into 4 equal portions (1 adult heart is typically divided between 4 wells for optimal EPDC outgrowth). • 8. Pipette 2 ml of EPDC culture medium, supplemented with 100 ng/ml Tβ4, into each well to be used. • 9. Place 1 portion of heart tissue into the centre of each well and ensure that all pieces are submerged. • 10. Gently transfer the plate to a humidified 5% CO2 37° C. incubator. Maintain cultures with minimum disturbance to allow explants to adhere. No feeding is required for the first 72 hours. Minimal disturbance is absolutely essential for EPDC outgrowth. Explants adhere only tenuously in the first instance and disturbance in the first few days of culture will prevent adhesion or lead to detachment. Plates should be transferred extremely cautiously between incubator and microscope or culture hood. After sufficient EPDCs have emerged, explants attach more firmly but care is still required as detachment may easily occur. • 11. After 72 hours in culture, carefully transfer plate to culture hood, wash explants gently with DPBS and add 2 ml fresh EPDC medium containing 100 ng/ml Tβ4. Leave for a further 24 hours before assessment of cellular phenotype.
• 1. Culture adult heart explants as described above. • 2. After 72 hours of culture, fix cells with 4% PFA for 10 minutes at room temperature. • 3. Wash cells twice with PBS. • 4. Permeabilise cells with 0.5% Triton X-100 in PBS for 5 minutes at room temperature. • 5. Wash cells twice with PBS. • 6. Block non-specific binding by incubating cells in BLOCK (1% BSA/10% sheep serum in PBS) for 1 hour at room temperature. • 7. Incubate cells with an appropriate dilution of primary antibody (epicardin, 1:100; SMalphaA, 1:700; Flk1, 1:100), or Procollagen type I, 1:100), in BLOCK. • 8. Wash cells 3 times using BLOCK. • 9. Incubate cells with the appropriate secondary antibody (epicardin: Cy3-conjugated anti-rabbit; SMalphaA: FITC-conjugated anti-mouse, 1:30; Procollagen type I: Alexa 488-conjugated anti-goat, 1:200; Flk1: Alexa 594-conjugated anti-rat, 1:200) diluted in BLOCK. • 10. Wash cells twice in PBS. • 11. Optionally, to stain nuclei, incubate with 5 ug/ml Hoechst in PBS for 5 minutes at room temperature. • 12. Wash cells twice in PBS. • 13. Mount coverslips onto microscope slides using 50% glycerol in PBS as mountant and visualize using a fluorescence microscope. […]

[2] = system: Tβ4shNk embryo hearts at E14.5; experiment: AcSDKP intraperitoneal injection into pregnant females, rescue of Tβ4 knockdown embryo hearts; assay type: in vivo, mouse; details: E14.5 Tβ4shNk embryos
From the text: To investigate a role for Tβ4 during heart development and to provide insight into the mechanism by which the peptide mediates adult cardiac repair, we generated mouse embryos with heart-specific Tβ4 deficiency using a novel strategy of transgenic conditional RNA interference (RNAi; as described above). Floxed Tβ4 short hairpin RNA (Tβ4shRNAflox) mice were crossed with two strains of Cre-expressing mice: Nkx2-5^CreKI (designated Tβ4shNk), which directs Cre expression throughout the majority of cardiomyocytes, and MLC2vCreKI (designated Tβ4shMlc), which directs Cre expression specifically to ventricular cardiomyocytes. Tβ4shNk embryos were also observed to have thymic defects consistent not only with Cre expression driven by Nkx2-5 in the developing thymus, but also with the thymus representing an obvious source of Tβ4.
We next investigated whether AcSDKP could rescue any of the vasculogenesis defects observed in the Tβ4 mutant hearts. […] This supports our interpretation of the primary phenotype in Tβ4 mutants. AcSDKP lacks actin binding function, rendering it unable to stimulate filamentous actin assembly and lamellipodia-based cell migration and consequently unable to rescue the EPDC defect. […]

For `CC(=O)N[C@@H](CO)C(=O)N[C@@H](CC(=O)O)C(=O)N[C@@H](CCCCN)C(=O)N1CCC[C@H]1C(=O)O` [AcSDKP, N-acetyl-seryl-aspartyllysyl-proline] (Ac-SDKP-OH), which “differentiated (Flk1-positive) endothelial cells” value ([1]; adult epicardial explants) is on record?
The value was “striking increase”.

And the “smooth muscle cells in treated cultures” value ([1]; adult epicardial explants, data not shown)?
The value was “only very few smooth muscle cells observed”.

And the “EPDC outgrowth from adult heart explants” value ([1]; adult mouse heart explants, 8-12 weeks, vs untreated explants)?
The value was “unable to promote epicardial outgrowth beyond control levels”.

And the “rescue of the phenotype attributed to Tβ4 knockdown” value [2]?
Its value is “failed to rescue any of the phenotype”.
